Measurements: patent US20070213359A1 (ACADIA Pharmaceuticals Inc., priority 2005, published 2007)
Read-outs that look alike come from different tables or passages of the source.

Tests used:
[1] = target: T1, Ghrelin receptor (Homo sapiens, UniProt Q92847); assay: Aeg; assay type: cell-based
Target sequence in this assay (Q92847 whole entry): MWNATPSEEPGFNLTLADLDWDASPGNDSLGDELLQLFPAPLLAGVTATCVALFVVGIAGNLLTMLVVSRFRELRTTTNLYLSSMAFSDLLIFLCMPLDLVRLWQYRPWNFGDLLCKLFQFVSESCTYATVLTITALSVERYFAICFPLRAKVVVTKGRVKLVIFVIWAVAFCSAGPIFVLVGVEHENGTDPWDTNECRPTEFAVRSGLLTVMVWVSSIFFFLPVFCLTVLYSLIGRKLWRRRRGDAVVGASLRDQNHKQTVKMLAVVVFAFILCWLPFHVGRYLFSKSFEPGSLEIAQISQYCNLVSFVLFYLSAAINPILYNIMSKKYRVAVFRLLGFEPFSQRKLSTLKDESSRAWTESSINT

[2] = target: T1, Ghrelin receptor; assay: Receptor Selection and Amplification Technology (R-SAT) assay; assay type: cell-based; design: expressed in transfected cells; host or cells: NIH3T3; conditions: for IC50: '—' not defined (nd used separately), read-out: RSAT pIC50 (converted); for Emax: read-out: RSAT Eff(%)
Target sequence in this assay (Q92847 whole entry): as above

[3] = target: T2, GHSR1a receptor (Homo sapiens, UniProt Q92847); assay: 125I-Ghrelin binding assay; conditions: displacement of 125I-ghrelin (0.053 nM), membranes of HEK293 cells transfected with GHSR1a, Cheng-Prussoff, '—' not defined
T2 construct: expressed in transfected cells; host or cells: HEK293 (membranes)

[4] = test system: fasted, male Sprague-Dawley rats; assay: Suppression of acute feeding response in fasted rats; assay type: in vivo, rat; conditions: intraperitoneal, 30 mg/kg
[5] = target: T1, Ghrelin receptor; assay: pIC50; design: expressed in transfected cells; host or cells: NIH3T3
Text: Table printed on a drawing sheet, Figure 1
First copying reader's note: The table stands under a dose-response plot; chemical names broken over two lines at a hyphen are joined by a blank.
Target sequence in this assay (Q92847 whole entry, looked up): as the sequence (Q92847 whole entry) above

[6] = read-out: Binding pKi (converted)
[7] = negative logarithm of ligand concentration causing 50% inhibition of constitutive receptor response, transfected NIH3T3 cells
[8] = percent inhibition at saturating ligand, normalized to reference ligand Substance P analog = 100%

T2 sequence (Q92847 whole entry): as above

COc1cccc2c(C(=O)c3ccccc3)cn(CCCN3CCC(c4nc5ccccc5s4)CC3)c12
IC50 [1]: 63.1 nM | IC50 ([2]; […]): 0.2 nM | Emax [2]: 107% | Ki ([3]; Binding pKi): 39.8 nM

COc1cccc2c(C(=O)Cc3ccccc3)cn(CCCN3C4CCC3CC(CCc3ccccc3)C4)c12 (stereo not drawn)
IC50 ([2]; […]): 0.251 nM | Emax [2]: 141% | Ki [3, 6]: 10 nM

COc1cccc2c(C(=O)C3CC3)cn(CCCN3CCC(Oc4ccc(F)cc4)CC3)c12
IC50 [1]: 39.8 nM | IC50 ([2]; […]): 0.398 nM | Emax [2]: 101% | Ki ([3]; Binding pKi): 50.1 nM

CC(=O)c1cn(CCCN2CCC(C(=O)c3ccccc3)CC2)c2c(C)cccc12
IC50 [2, 7]: 3.16 nM | Emax [2, 8]: 96% | Ki [3, 6]: 100 nM

CC(=O)c1cn(CCCN2CCCN(Cc3ccccc3Cl)CC2)c2ncccc12
IC50 [2, 7]: 3.16 nM | Emax [2, 8]: 115% | Ki [3, 6]: 25.1 nM

COc1cccc2c(C(=O)Cc3ccccc3)cn(CCCN3CCN(Oc4cccc(Cl)c4)CC3)c12
IC50 ([2]; […]): 3.16 nM | Emax [2]: 88% | Ki [3, 6]: 15.8 nM

COc1cccc2c(C(=O)Cc3ccccc3)cn(CCCN3C4CCC3CC(Oc3ccc(F)cc3)C4)c12 (stereo not drawn)
IC50 ([2]; […]): 3.98 nM | Emax [2]: 99% | Ki [3, 6]: 251 nM

COc1cccc2c(C(=O)c3ccccc3)cn(CCCN3CCCN(Cc4ccc(F)cc4)CC3)c12
IC50 ([2]; […]): 3.98 nM | Emax [2]: 96% | Ki [3, 6]: 10 nM

COc1cccc2c(C(=O)NCC(C)C)cn(CCCN3CCC(Oc4ccc(Cl)cc4)CC3)c12
IC50 [2, 7]: 3.98 nM | Emax [2]: 146% | Ki [3, 6]: 50.1 nM

CC(=O)c1c(C)n(CCCN2C3CCC2CC(CC(=O)c2ccc(Cl)cc2)C3)c2c(Br)cccc12 (stereo not drawn)
IC50 [2, 7]: 631 nM | Emax [2, 8]: 64% | Ki [3, 6]: 63.1 nM

CC(=O)c1cn(CCCN2C3CCC2CC(OCC2CC2)C3)c2ccccc12 (stereo not drawn)
IC50 [2, 7]: 1260 nM | Emax [2, 8]: 89% | Ki [3, 6]: 15800 nM

COc1cccc2c(C#N)cn(CCCN3CCC(Oc4cccc(Cl)c4)CC3)c12
IC50 [2, 7]: 1260 nM | Emax [2, 8]: 162% | Ki [3, 6]: 39.8 nM

COc1ccc2c(c1)C1CCN(CCCn3cc(C(C)=O)c4ccccc43)CC1C2 (stereo not drawn)
IC50 [2, 7]: 1260 nM | Emax [2, 8]: 110% | Ki [3, 6]: 5010 nM

COC(=O)c1cn(CCCN2CCC(Oc3ccc(F)cc3)CC2)c2ccccc12
IC50 [2, 7]: 2000 nM | Emax [2, 8]: 87% | Ki [3, 6]: 3160 nM

COc1cccc2c(C#N)cn(CCCN3C4CCC3CC(Oc3ccc(F)cc3)C4)c12 (stereo not drawn)
IC50 [2, 7]: 15800 nM | Emax [2, 8]: 107% | Ki [3, 6]: 200 nM

COc1cccc2c(C#N)cn(CCCN3C4CCC3CC(CC(=O)c3ccc(Cl)cc3)C4)c12 (stereo not drawn)
Emax [2, 8]: 12% | Ki [3, 6]: 79.4 nM

CC(=O)c1c(C)n(CCCN2C3CCC2CC(Oc2ccccc2Cl)C3)c2c(Br)cccc12 (stereo not drawn)
Emax [2, 8]: 37% | Ki [3, 6]: 100 nM

COc1cccc2c(C#N)cn(CCCN3CCCC(Cc4ccccc4Cl)C3)c12 (stereo not drawn)
Emax [2, 8]: 62% | Ki [3, 6]: 200 nM

O=C(c1cn(CCCN2C3CCC2CC(Oc2ccccc2Cl)C3)c2ncccc12)C(F)(F)F (stereo not drawn)
Emax [2, 8]: 23% | Ki [3, 6]: 251 nM

CC(=O)c1c(C)n(CCCN2CCCN(Cc3ccccc3Cl)CC2)c2c(Br)cccc12
Emax [2, 8]: -14% | Ki [3, 6]: 398 nM

COc1cccc2c(C(C)=O)cn(CC(C)CN3C4CCC3CC(CC(=O)c3ccc(Cl)cc3)C4)c12 (stereo not drawn)
Emax [2]: 16% | Ki [3, 6]: 398 nM

CCc1cccc2c(C(C)=O)cn(CCCN3CCC(CCOc4ccc(Cl)cc4)CC3)c12
Emax [2, 8]: 76% | Ki [3, 6]: 501 nM

O=C(CC1CC2CCC(C1)N2CCCn1cc(C(=O)C(F)(F)F)c2cccnc21)c1ccc(Cl)cc1 (stereo not drawn)
Emax [2, 8]: 10% | Ki [3, 6]: 631 nM

CCCCC1CCN(CCCn2cc(C(C)=O)c3ccccc32)CC1 [1-(1-(3-(4-butylpiperidin-1-yl)propyl)-1H-indol-3-yl)ethanone]
suppression of feeding [4]: Robust suppression of feeding | IC50 [5]: 158 nM

COc1cccc2c(C(=O)NCC(C)C)cn(CCCN3CCC(c4nc5ccccc5s4)CC3)c12 [drawing 234]
IC50 ([2]; […]): 1.58 nM | Emax [2]: 106% | Ki ([3]; Binding pKi): 1000 nM

CC(=O)c1cn(CCCN2C3CCC2CC(CCc2ccccc2)C3)c2ccccc12 (stereo not drawn) [drawing 267]
IC50 [2, 7]: 5.01 nM | Emax [2, 8]: 105% | Ki [3, 6]: 316 nM

COc1cccc2c(C(C)=O)cn(CCCN3CCC(Oc4ccc(Cl)cc4)CC3)c12 [drawing 276]
IC50 ([2]; […]): 5.01 nM | Emax [2]: 144% | Ki [3, 6]: 200 nM

COc1cccc2c(C(C)=O)cn(CCCN3CCC(c4nc5ccccc5s4)CC3)c12 [drawing 280]
IC50 [2, 7]: 6.31 nM | RSAT Eff(%) [2, 8]: 128% | Ki [3, 6]: 398 nM

COc1cccc2c(C(C)=O)cn(CCCN3CCC(Oc4ccc(Cl)cc4)CC3)c12 [drawing 300]
IC50 [2, 7]: 7.94 nM | RSAT Eff(%) [2, 8]: 129% | Ki [3, 6]: 126 nM

COc1cccc2c(C(C)=O)cn(CCCN3CCC(c4nc5ccccc5s4)CC3)c12 [drawing 310]
IC50 ([2]; […]): 10 nM | Emax [2]: 102% | Ki [3, 6]: 158 nM

CCCOC1CCN(CCCn2cc(C(C)=O)c3cccc(OC)c32)CC1 [drawing 333]
IC50 [2, 7]: 15.8 nM | Emax [2, 8]: 112% | Ki [3, 6]: 2000 nM

CC(=O)c1cn(CCCN2C3CCC2CC(CCc2ccccc2)C3)c2ccccc12 (stereo not drawn) [drawing 433]
IC50 [2, 7]: 63.1 nM | RSAT Eff(%) [2, 8]: 96% | Ki [3, 6]: 1580 nM

CC(=O)c1cn(CCCN2CCC(Oc3ccc(F)cc3)CC2)c2ccccc12 [drawing 551]
IC50 [2, 7]: 398 nM | RSAT Eff(%) [2, 8]: 96% | Ki [3, 6]: 2000 nM

COc1ccccc1C1CCN(CCCn2cc(C(C)=O)c3ccccc32)CC1 [drawing 576]
IC50 [2, 7]: 501 nM | RSAT Eff(%) [2, 8]: 106% | Ki [3, 6]: 1260 nM

CCCCC1CCN(CCCn2cc(C(C)=O)c3ccccc32)CC1 [drawing 584]
IC50 ([2]; […]): 631 nM | Emax [2]: 77% | Ki ([3]; Binding pKi): 3980 nM

CC(=O)c1cn(CCCN2CCC(Oc3ccccc3Cl)CC2)c2ccccc12 [drawing 599]
RSAT Eff(%) [2, 8]: 116% | Ki [3, 6]: 2510 nM

O=C(NCc1cccc(Cl)c1)c1cn(CCCN2CCC(Oc3ccc(F)cc3)CC2)c2ccccc12 [drawing 659]
RSAT Eff(%) [2]: 67% | Ki [3, 6]: 1580 nM
